Assay results from article PMC8632988, “Inhibition of SYK and cSrc kinases can protect bone and cartilage in preclinical models of osteoarthritis and rheumatoid arthritis” (Scientific Reports, 2021).
Where “and” joins values, the source holds several entries; their conditions need not be identical. Equal values may be shown once. Read-outs that look alike come from different tables or passages of the source.

Experiments:
Experiment in all cases: Kinase selectivity profile assay
Format in all cases: biochemical
TGFBR2 = target: T1, TGFBR2 (Homo sapiens, UniProt P37173); conditions: 500 nM; relative to DMSO; read-out: Residual enzymatic activity
T1 construct: purchased Reaction Biology Corporation
Procedure, shortened: (§1)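 Radiometric kinase assay run by a standard protocol. Unbound phosphate was removed by washing filters in phosphoric acid, and product radioactivity gave percent remaining kinase activity versus DMSO vehicle reactions. Run in duplicate.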

SSTK/TSSK6 = target: T2, SSTK/TSSK6 (Homo sapiens, UniProt Q9BXA6); conditions: 500 nM; relative to DMSO; read-out: Residual enzymatic activity
T2 construct: purchased Reaction Biology Corporation
Procedure, shortened: as §1

EPHB4 = target: T3, EPHB4 (Homo sapiens, UniProt P54760); conditions: 500 nM, relative to DMSO; for remaining activity at 0.5 µM: read-out: Residual enzymatic activity
T3 construct: purchased Reaction Biology Corporation
T3 sequence (P54760 16-987): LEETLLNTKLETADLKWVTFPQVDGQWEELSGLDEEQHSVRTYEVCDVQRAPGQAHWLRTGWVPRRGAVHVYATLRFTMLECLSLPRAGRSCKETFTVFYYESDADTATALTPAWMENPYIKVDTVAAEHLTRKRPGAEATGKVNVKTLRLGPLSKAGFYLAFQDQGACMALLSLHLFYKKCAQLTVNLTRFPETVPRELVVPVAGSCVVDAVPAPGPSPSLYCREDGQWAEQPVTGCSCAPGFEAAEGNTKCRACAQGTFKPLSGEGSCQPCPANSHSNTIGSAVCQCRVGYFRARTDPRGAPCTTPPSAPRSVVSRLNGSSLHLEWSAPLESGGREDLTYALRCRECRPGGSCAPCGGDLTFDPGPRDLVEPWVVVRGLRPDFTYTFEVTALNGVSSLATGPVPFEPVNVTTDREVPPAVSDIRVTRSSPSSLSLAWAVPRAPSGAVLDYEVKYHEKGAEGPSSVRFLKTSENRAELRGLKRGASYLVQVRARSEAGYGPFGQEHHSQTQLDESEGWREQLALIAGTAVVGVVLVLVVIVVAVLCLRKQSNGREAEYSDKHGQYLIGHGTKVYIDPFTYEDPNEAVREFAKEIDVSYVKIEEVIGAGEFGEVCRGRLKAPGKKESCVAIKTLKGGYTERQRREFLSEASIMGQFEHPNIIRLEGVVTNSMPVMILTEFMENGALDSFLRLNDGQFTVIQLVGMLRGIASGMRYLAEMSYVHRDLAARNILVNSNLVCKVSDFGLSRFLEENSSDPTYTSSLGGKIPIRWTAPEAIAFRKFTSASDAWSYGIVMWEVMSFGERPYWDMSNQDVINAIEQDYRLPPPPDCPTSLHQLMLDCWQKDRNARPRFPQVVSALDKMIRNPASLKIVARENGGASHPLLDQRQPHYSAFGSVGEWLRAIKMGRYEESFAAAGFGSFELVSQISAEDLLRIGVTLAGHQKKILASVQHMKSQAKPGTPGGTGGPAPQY
Procedure, shortened: as §1

CAMK2g = target: T4, CAMK2g (Homo sapiens, UniProt Q13555); conditions: 500 nM; relative to DMSO; read-out: Residual enzymatic activity
T4 construct: purchased Reaction Biology Corporation
Procedure, shortened: as §1

NEK5 = target: T5, NEK5 (Homo sapiens, UniProt Q6P3R8); conditions: 500 nM; relative to DMSO; read-out: Residual enzymatic activity
T5 construct: purchased Reaction Biology Corporation
Procedure, shortened: as §1

ERK7/MAPK15 = target: T6, ERK7/MAPK15 (Homo sapiens, UniProt Q8TD08); conditions: read-out: Residual enzymatic activity
T6 construct: purchased Reaction Biology Corporation
Procedure, shortened: as §1

RIPK2 = target: T7, RIPK2 (Homo sapiens, UniProt O43353); conditions: 500 nM; relative to DMSO; read-out: Residual enzymatic activity
T7 construct: purchased Reaction Biology Corporation
Procedure, shortened: as §1

CDK4/cyclin D1 = target: T8, CDK4/cyclin D1 (Homo sapiens, UniProt P11802); conditions: read-out: Residual enzymatic activity
T8 construct: purchased Reaction Biology Corporation
Procedure, shortened: as §1

EPHB1 = target: T9, EPHB1 (Homo sapiens, UniProt P54762); conditions: for remaining activity at 0.5 µM: 500 nM, relative to DMSO, read-out: Residual enzymatic activity
T9 construct: purchased Reaction Biology Corporation (assay service)
T9 sequence (P54762 18-984): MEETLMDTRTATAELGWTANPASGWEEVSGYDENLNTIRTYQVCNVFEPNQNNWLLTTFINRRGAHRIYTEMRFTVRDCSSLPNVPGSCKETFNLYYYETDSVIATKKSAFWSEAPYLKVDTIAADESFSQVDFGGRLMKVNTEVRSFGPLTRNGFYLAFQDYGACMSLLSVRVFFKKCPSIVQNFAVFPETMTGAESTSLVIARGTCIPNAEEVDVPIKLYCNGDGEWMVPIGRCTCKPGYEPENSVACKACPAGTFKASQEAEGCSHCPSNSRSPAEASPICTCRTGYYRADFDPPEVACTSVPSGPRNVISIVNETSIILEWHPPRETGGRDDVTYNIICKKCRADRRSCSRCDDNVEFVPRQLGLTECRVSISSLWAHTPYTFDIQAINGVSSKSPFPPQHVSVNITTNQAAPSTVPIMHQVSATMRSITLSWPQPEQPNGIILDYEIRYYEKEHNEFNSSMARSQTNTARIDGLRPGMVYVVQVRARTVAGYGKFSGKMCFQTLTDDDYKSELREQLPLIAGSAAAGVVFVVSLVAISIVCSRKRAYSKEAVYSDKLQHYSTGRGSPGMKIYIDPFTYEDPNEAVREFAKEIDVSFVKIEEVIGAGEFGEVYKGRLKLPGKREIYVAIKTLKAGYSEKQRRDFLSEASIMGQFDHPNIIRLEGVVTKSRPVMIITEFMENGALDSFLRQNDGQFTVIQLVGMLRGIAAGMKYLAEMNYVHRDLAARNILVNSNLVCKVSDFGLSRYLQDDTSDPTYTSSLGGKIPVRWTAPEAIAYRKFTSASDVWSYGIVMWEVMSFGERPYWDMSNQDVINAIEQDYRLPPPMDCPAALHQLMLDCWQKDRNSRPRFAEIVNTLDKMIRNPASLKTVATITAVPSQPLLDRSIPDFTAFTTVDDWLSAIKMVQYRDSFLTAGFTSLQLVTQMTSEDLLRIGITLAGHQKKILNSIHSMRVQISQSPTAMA
Procedure, shortened: as §1

PAK5 = target: T10, PAK5 (Homo sapiens, UniProt Q9P286); conditions: 500 nM; relative to DMSO; read-out: Residual enzymatic activity
T10 construct: purchased Reaction Biology Corporation
Procedure, shortened: as §1

CDK9/cyclin T1 = target: T11, CDK9/cyclin T1 (Homo sapiens, UniProt P50750); conditions: 500 nM; relative to DMSO; read-out: Residual enzymatic activity
T11 construct: purchased Reaction Biology Corporation
Procedure, shortened: as §1

MLCK/MYLK = target: T12, MLCK/MYLK (Homo sapiens, UniProt Q15746); conditions: 500 nM; relative to DMSO; read-out: Residual enzymatic activity
T12 construct: purchased Reaction Biology Corporation
Procedure, shortened: as §1

ROCK1 = target: T13, ROCK1 (Homo sapiens, UniProt Q13464); conditions: 500 nM; relative to DMSO; read-out: Residual enzymatic activity
T13 construct: purchased Reaction Biology Corporation
Procedure, shortened: as §1

PKN3/PRK3 = target: T14, PKN3/PRK3 (Homo sapiens, UniProt Q6P5Z2); conditions: 500 nM; relative to DMSO; read-out: Residual enzymatic activity
T14 construct: purchased Reaction Biology Corporation
Procedure, shortened: as §1

T11 sequence (P50750 whole entry): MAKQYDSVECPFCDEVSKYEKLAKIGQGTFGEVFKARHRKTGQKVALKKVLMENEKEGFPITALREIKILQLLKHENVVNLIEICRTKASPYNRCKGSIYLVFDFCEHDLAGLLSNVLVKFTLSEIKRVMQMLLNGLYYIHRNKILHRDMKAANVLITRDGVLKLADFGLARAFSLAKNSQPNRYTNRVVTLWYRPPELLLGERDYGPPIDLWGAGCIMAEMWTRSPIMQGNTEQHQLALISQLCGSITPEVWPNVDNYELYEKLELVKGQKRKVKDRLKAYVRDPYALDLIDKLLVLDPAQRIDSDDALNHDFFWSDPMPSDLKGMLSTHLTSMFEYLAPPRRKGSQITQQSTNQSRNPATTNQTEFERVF
T11 sequence (O60563 whole entry partner): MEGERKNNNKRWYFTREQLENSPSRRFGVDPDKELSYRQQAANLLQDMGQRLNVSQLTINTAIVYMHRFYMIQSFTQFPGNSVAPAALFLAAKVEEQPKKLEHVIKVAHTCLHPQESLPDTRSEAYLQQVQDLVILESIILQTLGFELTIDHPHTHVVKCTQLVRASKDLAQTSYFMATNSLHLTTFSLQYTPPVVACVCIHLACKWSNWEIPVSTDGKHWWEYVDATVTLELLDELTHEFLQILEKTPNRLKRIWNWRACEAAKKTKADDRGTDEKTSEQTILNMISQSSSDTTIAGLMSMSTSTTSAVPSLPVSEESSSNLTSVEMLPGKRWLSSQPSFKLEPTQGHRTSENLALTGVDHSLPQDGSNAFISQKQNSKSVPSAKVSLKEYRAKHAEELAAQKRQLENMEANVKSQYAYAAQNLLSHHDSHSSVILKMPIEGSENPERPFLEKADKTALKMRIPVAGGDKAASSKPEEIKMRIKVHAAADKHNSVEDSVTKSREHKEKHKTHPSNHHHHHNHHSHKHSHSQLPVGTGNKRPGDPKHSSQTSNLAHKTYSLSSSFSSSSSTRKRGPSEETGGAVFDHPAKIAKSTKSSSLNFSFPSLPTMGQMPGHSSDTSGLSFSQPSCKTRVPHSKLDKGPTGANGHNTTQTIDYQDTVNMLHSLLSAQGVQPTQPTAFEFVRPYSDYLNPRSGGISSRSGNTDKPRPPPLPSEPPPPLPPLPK
T10 sequence (Q9P286 whole entry): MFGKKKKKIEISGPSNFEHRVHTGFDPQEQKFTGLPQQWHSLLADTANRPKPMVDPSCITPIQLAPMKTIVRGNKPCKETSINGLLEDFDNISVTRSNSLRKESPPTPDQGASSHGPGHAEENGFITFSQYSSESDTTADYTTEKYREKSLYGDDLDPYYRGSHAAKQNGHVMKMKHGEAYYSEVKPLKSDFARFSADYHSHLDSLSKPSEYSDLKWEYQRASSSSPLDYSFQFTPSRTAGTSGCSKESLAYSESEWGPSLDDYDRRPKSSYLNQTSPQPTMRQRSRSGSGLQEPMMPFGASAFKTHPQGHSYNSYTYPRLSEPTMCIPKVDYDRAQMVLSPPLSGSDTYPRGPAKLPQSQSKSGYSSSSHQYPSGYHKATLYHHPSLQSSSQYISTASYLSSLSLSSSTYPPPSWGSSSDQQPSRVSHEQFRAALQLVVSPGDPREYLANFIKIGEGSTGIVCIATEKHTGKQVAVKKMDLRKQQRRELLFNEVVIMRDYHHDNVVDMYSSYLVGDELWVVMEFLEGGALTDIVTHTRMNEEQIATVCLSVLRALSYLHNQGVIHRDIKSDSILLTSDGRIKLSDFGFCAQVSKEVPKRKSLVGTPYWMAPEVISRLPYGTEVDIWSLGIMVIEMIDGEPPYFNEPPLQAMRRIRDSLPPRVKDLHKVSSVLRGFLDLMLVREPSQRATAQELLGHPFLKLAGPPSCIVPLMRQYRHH
T12 sequence (Q15746 whole entry): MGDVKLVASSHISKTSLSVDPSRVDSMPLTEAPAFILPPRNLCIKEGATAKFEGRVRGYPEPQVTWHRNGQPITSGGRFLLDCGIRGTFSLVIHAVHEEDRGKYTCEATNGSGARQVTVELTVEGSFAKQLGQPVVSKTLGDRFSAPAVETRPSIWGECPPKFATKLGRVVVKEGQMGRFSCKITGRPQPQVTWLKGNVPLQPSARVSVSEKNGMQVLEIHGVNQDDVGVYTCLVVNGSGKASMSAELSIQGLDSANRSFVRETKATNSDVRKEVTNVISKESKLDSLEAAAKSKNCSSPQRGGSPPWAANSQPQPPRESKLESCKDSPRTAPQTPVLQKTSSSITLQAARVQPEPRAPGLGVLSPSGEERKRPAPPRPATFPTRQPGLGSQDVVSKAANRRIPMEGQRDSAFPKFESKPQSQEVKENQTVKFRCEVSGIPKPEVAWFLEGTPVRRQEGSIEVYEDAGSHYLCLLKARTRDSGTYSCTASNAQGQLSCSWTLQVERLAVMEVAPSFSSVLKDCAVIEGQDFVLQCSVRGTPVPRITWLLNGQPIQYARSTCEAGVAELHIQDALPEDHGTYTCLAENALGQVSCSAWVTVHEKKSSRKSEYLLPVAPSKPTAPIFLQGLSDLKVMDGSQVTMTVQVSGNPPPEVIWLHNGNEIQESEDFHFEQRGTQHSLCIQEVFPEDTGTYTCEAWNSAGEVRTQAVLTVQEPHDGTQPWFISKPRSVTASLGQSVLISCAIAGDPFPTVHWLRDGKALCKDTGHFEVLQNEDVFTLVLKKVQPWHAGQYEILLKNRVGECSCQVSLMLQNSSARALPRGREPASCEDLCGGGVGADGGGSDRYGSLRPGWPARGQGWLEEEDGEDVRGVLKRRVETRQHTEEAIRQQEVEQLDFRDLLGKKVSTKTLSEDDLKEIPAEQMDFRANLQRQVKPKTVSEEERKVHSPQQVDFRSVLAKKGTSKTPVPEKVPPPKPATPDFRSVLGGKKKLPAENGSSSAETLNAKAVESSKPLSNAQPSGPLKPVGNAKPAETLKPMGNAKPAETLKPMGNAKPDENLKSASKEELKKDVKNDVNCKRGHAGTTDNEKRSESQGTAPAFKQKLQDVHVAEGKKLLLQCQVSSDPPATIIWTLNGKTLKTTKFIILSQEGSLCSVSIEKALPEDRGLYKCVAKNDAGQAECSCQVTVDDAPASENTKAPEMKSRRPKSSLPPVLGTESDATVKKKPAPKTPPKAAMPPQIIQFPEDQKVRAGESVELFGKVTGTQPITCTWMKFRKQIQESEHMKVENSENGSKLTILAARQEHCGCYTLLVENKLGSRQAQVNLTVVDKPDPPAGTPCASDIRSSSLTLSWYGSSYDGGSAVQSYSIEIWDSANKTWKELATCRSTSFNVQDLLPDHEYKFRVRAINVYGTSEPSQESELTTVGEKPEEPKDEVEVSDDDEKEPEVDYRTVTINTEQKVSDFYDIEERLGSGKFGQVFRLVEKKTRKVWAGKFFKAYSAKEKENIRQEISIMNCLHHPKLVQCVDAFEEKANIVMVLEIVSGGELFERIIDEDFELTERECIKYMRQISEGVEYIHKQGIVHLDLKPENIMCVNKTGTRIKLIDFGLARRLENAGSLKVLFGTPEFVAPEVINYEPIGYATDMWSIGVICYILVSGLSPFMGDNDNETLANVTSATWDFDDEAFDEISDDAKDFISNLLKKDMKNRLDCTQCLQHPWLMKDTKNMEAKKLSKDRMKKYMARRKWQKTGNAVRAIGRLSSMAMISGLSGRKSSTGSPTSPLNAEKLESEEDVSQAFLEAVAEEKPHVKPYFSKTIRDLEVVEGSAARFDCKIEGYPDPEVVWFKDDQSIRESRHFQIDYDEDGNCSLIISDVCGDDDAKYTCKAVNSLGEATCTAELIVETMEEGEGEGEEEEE
T4 sequence (Q13555 whole entry): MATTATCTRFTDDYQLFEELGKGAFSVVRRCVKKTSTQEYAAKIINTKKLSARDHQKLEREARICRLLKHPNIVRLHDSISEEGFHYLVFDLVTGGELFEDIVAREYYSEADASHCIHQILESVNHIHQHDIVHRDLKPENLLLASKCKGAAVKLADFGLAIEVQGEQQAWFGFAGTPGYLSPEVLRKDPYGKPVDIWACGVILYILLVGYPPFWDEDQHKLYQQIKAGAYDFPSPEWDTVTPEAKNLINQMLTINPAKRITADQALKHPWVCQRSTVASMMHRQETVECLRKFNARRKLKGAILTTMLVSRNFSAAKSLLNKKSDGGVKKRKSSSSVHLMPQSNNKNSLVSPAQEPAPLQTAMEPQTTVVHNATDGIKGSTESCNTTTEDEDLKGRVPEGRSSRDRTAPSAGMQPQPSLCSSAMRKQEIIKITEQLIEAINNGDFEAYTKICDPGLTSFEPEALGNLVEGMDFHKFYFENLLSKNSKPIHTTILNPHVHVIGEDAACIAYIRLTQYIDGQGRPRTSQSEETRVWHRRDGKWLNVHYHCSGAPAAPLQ
T8 sequence (P11802 whole entry): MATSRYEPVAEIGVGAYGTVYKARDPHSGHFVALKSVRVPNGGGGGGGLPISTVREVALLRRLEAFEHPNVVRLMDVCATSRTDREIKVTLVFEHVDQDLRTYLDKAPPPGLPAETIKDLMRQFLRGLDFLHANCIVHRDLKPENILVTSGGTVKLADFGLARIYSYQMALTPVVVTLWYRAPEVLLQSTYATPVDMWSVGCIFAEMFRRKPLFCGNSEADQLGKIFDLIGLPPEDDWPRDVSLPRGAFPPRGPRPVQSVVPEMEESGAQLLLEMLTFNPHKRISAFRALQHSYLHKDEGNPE
T8 sequence (P24385 whole entry partner): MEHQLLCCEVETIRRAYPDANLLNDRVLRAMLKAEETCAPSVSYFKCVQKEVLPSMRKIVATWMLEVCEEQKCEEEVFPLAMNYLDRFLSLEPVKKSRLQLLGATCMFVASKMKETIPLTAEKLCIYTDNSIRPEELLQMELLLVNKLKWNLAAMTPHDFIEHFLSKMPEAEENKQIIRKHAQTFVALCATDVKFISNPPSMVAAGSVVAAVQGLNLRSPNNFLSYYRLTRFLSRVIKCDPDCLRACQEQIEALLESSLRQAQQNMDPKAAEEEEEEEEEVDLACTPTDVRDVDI

Compound	remaining activity at 0.5 µM (TGFBR2)	remaining activity at 0.5 µM (SSTK/TSSK6)	remaining activity at 0.5 µM (EPHB4)	remaining activity at 0.5 µM (CAMK2g)	remaining activity at 0.5 µM (NEK5)	remaining activity at 0.5 µM (ERK7/MAPK15)	remaining activity at 0.5 µM (RIPK2)	remaining activity at 0.5 µM (CDK4/cyclin D1)	remaining activity at 0.5 µM (EPHB1)	remaining activity at 0.5 µM (PAK5)	remaining activity at 0.5 µM (CDK9/cyclin T1)	remaining activity at 0.5 µM (MLCK/MYLK)	remaining activity at 0.5 µM (ROCK1)	remaining activity at 0.5 µM (PKN3/PRK3)	Residual enzymatic activity (EPHB4)	remaining activity at 0.5 µM (ERK7/MAPK15; 500 nM, relative to DMSO)	remaining activity at 0.5 µM (CDK4/cyclin D1; 500 nM, relative to DMSO)	IC50 (EPHB1; 10-dose mode, threefold serial dilution from 10 μM)
COc1cc(Nc2ncc(F)c(Nc3ccc4c(n3)NC(=O)C(C)(C)O4)n2)cc(OC)c1OC [R406, reference compound]	97.1%	98.7%	51.2%	101%	27.1%	77.1%	73%	104%	-4%	49%	99.5%	90.5%	87%	40.8%	–	–	–	–
COc1cc(Nc2ncnc(Nc3cc4c(cn3)NC(=O)C(C)(C)O4)n2)cc(OC)c1OC [MT-SYK-03]	116%	103%	> 54%	100%	63.6%	–	84.7%	–	9.6%	98.5%	118%	96.2%	95.1%	90%	64.6%	100%	109%	25 nM and 24.7 nM
